# From EP0893123A1, “AGENT FOR USE IN THE PREVENTION AND TREATMENT OF DISORDERS ASSOCIATED WITH VARIOUS TYPES OF AGEING” (Peganov, Eduard Maximovich, priority 1995, dated 1997)
# Experiments:
# [1] = Body weight of old rats during 21 days of drinking water containing D2O; format: in vivo; conditions: for weight of the animals: experimental group
# Procedure: (§1) The experiments were performed on 20 old (29-30 months) outbred female rats. During 21 days control group (9 rats) received usual water as free drinking, and experimental group (11 rats) drank water, containing ? 2O. Control weighing and visual observation of their behaviour was carried out. Then for 6 days both groups received usual water "to wash out " heavy water from the body in order to put both groups in equal conditions in the subsequent experiments. After that the experiment was carried out as follows: each day one control or one experimental animal was narcotised by urethane (1,3 g/kg) and decapitated. The hippocampal slices then were prepared, which were transferred to the special thermostatic chamber, where they were incubated during the experiment. The chamber was perfused at the rate of 2 ml/minute with physiological solution (content in mM: NaCl-124; KCl-5,0; CaCl2-2,5; MgSO4- 2,4; KH2PO4-1,25; NaHCO3-26; glucose-15; pH―7,4-7,5;), saturated with carbogen (95 % O2 and 5 % CO2). The slices were stored for 20-30 minutes at room temperature, then temperature was increased up to 28-29°C. Electrical activity was recorded in 1-1,5 hour after preparation of slices. The recording glass microelectrodes, filled with 2M solution of sodium citrate (electrical resistance 5-25 Mo ? ) were inserted into the layer of pyramidal neurones. Electrical stimulation of Shaffer's collaterals was made through double-barrel glass microelectrodes, filled with physiological solution, with the resistance up to 2 Mo ? , by the rectangular pulses (amplitude up to 40 V, duration 0.2 msec, frequency 0,2-0,3 Hz). Data processing was made on the computer (" Electronics D3-28 ").
# hippocampus of old rats = assay: Long term potentiation (LTP, model of ageing): electrophysiology of hippocampal slices from treated old rats; format: in vivo; set-up: PS amplitude on the average: unit not given here
# From the text: The following examples illustrate the invention: Example 1. Long term potentiation (LTP, model of ageing) The adequacy of the choice of the model is due the following factors: • LTP phenomenon relates to function of memory, being an initial stage in a chain of processes, resulting in formation of traces of long-term memory, since the impairment of LTP is accompanied on the behavioral level by impairment of memory, first of all on current events (Landfield . W., Lynch G., " Impaired monosynaptic potentiation of in vitro hippocmpal slices aged memory-deficient rats., J. Gerontology, 1977, v.32, 5, pp. 523-533; Landfield P.W., Pilter T.A. Applegate M. D., " The aged hippocampus: A model system for studies on mechanisms of behavioral plasticity and brain ageing) The Hippocampus, 1986, v.3, pp. 323-367). • the decrease of the content of various protein structures in old animals is reported (Monaghan D.T.et al is observed., " Age dependent loss of NMDA receptors in rodent brains ", Soc. Neurosci. Abstr.,1988, v.14, p.486; Angeluoci L., Imperato A.. " Age-dependent loss of muscarinic receptors and cholinergic impairment in the rats brain ", Neuroscience Letters, Suppl. 39, 1990, p. 8), • the degree of dementia was reported to correlate with decrease of the membrane surface density of N-methyl-D-aspartate receptors, responsible for LTP, in patients with SDAT (Represa A., et al., " Is senile dementia of the Alzheimer type associated with hippocampal plasticity", Brain research, 1988, v.457, 355-359). the decrease of the rate of overall protein synthesis and, as a consequence, deficits of various proteins and products of non-protein synthesis is characteristic not only for a brain, but also for all organs and systems and are the mostly ascertained facts, concerning ageing, and recognised markers of ageing (Markides S.C. " Protein synthesis and degradation during aging and senescence ", Biol. Rev., 19836 v.58, 343-422; Rattan S. I., " Ageing and discase: proteins as the molecular link ", Perspect. Biol and Med., 1991, v.34, 4. Pp 526-533).
# as §1
# Results . On the average in control group weight of the animals was : at the 1-st day 365 ± 37 g, at 21-th day 380 ± 38 g. […]
# staphylococcus toxin = tested on: staphylococcus toxin; set-up: species or system outbred white rats; conditions: rat, in vivo
# [2] = tested on: pseudomonas aeruginosa strain N 450; assay: Model of sepsis (intramuscular pseudomonas aeruginosa culture in 10% CaCl2); conditions: D2O consumed 2 days before and 9 days after infection, fig. 8
# pneumococcus = assay: Bacterial shock model (intraperitoneal pneumococcus culture, minimal lethal dose)
substance,measurement,setting,value
deuterium oxide [heavy water],weight of the animals,[1]; at 21-th day of drinking water containing D2O,375 ± 34 g
same,weight of the animals,"[1]; at the first day, old (29-30 months) female rats",373 ± 25 g
same,differences in animals weight and in the weight increment between the two groups,"[1]; experimental vs control group, 21 days",No statistically significant differences
same,LTP occurred (share of rats),hippocampus of old rats; 7 of 10 old rats of experimental group,70%
same,Focal evoked potentials (FEP) with preserved pre- and postsynaptic components registered (share of HSs),hippocampus of old rats; 12 of 18 experimental hippocampal slices,67%
same,spontaneous pulse activity of pyramidal neurons of field CA1 detected (share of HSs),"hippocampus of old rats; 13 of 18 experimental hippocampal slices, 21 days D2O, 6 days wash out",72%
same,LTP occurred (number of HSs),"hippocampus of old rats; LTP = PS amplitude after tetanization increased more than by 25 %, sustained more than 30 minutes",10 of 18
same,increment of the potentiated response,"hippocampus of old rats; after second tetanization, example of figure 4",730%
same,PS amplitude increased on the average (LTP),"hippocampus of old rats; after tetanization, experimental group",151 % + 26
same,effect of repeated tetanization,"hippocampus of old rats; all cases, experimental group",further increase of the potentiated response
same,persistence of restored LTP after cancellation of treatment,"hippocampus of old rats; last three treated animals tested on 25-th, 26-th and 27-th days after D2O cancellation",persisted long (about month) after cancellation of treatment
same,PS amplitude on the average,hippocampus of old rats; population spikes in experimental HSs,217 ± 55
same,average increase of amplitude PS (frequency potentiation),hippocampus of old rats; stimulation by frequency of 1 Hz,55±31%
same,survival of animals,staphylococcus toxin,40%
same,time of dying,staphylococcus toxin,delay of the time of dying
same,delay of lethal outcomes,[2],3 days
same,decrease of lethality,[2]; vs control,3 times
same,experimental animals still alive,"pneumococcus; in 48 hours, when 100% of control animals had died, fig. 5",50%
same,dying delayed with respect to control animals,"pneumococcus; pneumococcus culture, 10 mice, D2O drunk 2-4 days before, fig. 5",about 24 hours
same,dying delayed,"pneumococcus; with additional treatment during shock to maintain blood circulation, fig. 6",48 h
